What was measured:
HT1080 cells = experiment: Mass spectrometry lipidomics of CPBA-treated cells; assay type: cell-based, human; conditions: 200 μM CPBA, 16 h
Experimental: Mass spectrometry-based lipid analysis was performed by Lipotype GmbH (Dresden, Germany) as described (Sampaio et al. 2011). Lipids were extracted using a two-step chloroform/methanol procedure (Ejsing et al. 2009). […]
Samples were analyzed by direct infusion on a QExactive mass spectrometer (Thermo Fisher Scientific) equipped with a TriVersa NanoMate ion source (Advion Biosciences). Samples were analyzed in both positive and negative ion modes with a resolution of Rm/z=200=280000 for MS and Rm/z=200=17500 for MSMS experiments, in a single acquisition. […]
Data were analyzed with in-house developed lipid identification software based on LipidXplorer (Herzog et al. 2011; Herzog et al. 2012). […]
Next, we analyzed the lipidomic signature of HT1080 cells treated with CPBA (200 μM, 16 h) using the lipidomics methods described above. […]

IHH, AML12, RAW264.7 = experiment: FIN56 toxicity in non-transformed hepatocytes and a monocyte/macrophage cell line; assay type: cell-based; conditions: CPBA 100 μM, iFSP1 10 μM; 16 h
Experimental: Cell culture media and supplements were from Thermo Fisher Scientific, unless specified otherwise. Mouse embryonic fibroblasts (MEFs) were generated from Pgp-wildtype (Pgp^fl/fl) or heterozygous Pgp-inactivated mouse embryos (Pgp^fl/D34N) as described (Segerer et al., 2016). […]
Cells were seeded onto 96-well plates (5,000 cells per well), and treated with serial dilutions of ferroptosis-inducing compounds (erastin, BSO, RSL3, FIN56) or cytotoxic drugs (staurosporine, nocodazole, tunicamycin, paclitaxel, etoposide, menadione, rotenone, FCCP, carboplatin) in the absence or presence of CPBA or iFSP1 (100 μM or 10 μM, respectively; unless stated otherwise) or the DMSO solvent control. Ferroptotic cell death was evaluated by incubating in the absence or presence of liproxstatin-1 (100 nM), ferrostatin-1 (200 nM), or deferoxamine (100 μM). Cell viability was assessed after 16 h using AquaBluer as an indicator of viable cells according to the manufacturer's recommendations (MultiTarget Pharmaceuticals, LLC). Fluorescence (excitation, 540 nm; emission, 590 nm) was analyzed on a Clariostar microplater reader. […]

SMILES	PUFA ether lipids (PE-O, PC-O) (HT1080 cells)	PUFA-triacylglycerides (HT1080 cells)	toxicity of FIN56 in non-transformed cell lines on addition of the compound (IHH, AML12, RAW264.7)
O=C(Nc1ccccc1C(=O)O)c1ccc(Oc2ccc(C(=O)Nc3ccccc3C(=O)O)cc2)cc1 [CPBA, 2-[[4-[4-[(2-carboxyphenyl)carbamoyl]phenoxy]benzoyl]amino]-benzoic acid]	downregulate polyunsaturated fatty acid (PUFA) ether lipids	upregulate PUFA-triacylglycerides (PUFA-TAGS)	–
Cc1ccc(-c2c(C#N)c(N)n3c(nc4ccccc43)c2C#N)cc1 [iFSP1, reference compound]	–	–	not markedly increased by the addition of CPBA or iFSP1

Reference: patent US20250064762A1, “A SUBSTITUTED AROMATIC DICARBONIC ACID AMIDE AS AN INHIBITOR OF THE FERROPTOSIS SUPPRESSOR PROTEIN-1 (FSP1)” (JULIUS-MAXIMILIANS-UNIVERSITÄT WÜRZBURG, priority 2021, published 2025)
